Data published in patent publication US8507409B2, “Synergistic combination of a glyphosate compound and DMITS” (Dow Global Technologies LLC, priority 2010, dated 2013).

What was measured:
Type in all cases: cell-based
[1] = system: Chlorella sp., Chlorella kessleri, and Nostoc commune; assay: Algal efficacy, dry paint film (Modified ASTM 5589), Cs + Ck + Nc pool; conditions: Ch-No; for Total conc in pppm: minimum inhibitory concentration chosen for SI calculation, total actives in paint
Experimental: (§1) Each sample was tested in duplicate.
(§2) In this synergy study, three pool of mixed algae were prepared as the test inoculum, Gloeocapsa sp. and Oscillatoria sp. a mix of cyanobacteria grown on BG-11 media; Chlorella sp., Chlorella kessleri, and Nostoc commune are unicellular chlorphytes that were mixed and grown on Bold media; Trentepohlia aurea, Tretepohlia odorata, and Calotrix parientina are filamentous algae that were mixed and grown on Bold media.
(§3) The plates were incubated at room temp (25° C.-26° C.) with cyclic exposure to light (OTT-Lite model # OTL4012P, 40 Watt, 26KLumen) and dark phases, for a period of four weeks. The total area covered was evaluated at the end of each week according to percent area covered in 5% increments.
(§4) The SI is calculated based on F. C.
(§5) SI value of <1 in the formula indicates a synergism of the blended biocides exists.
(§6) NE=no end point at the concentration tested that will meet the percent inhibition criteria set in each SI calculation.

[2] = system: Aspergillus niger mixed with Penicillium funiculosum; assay: Fungal efficacy, dry paint film (Modified ASTM 5590), An + Pf pool; conditions: for Total conc in pppm: minimum inhibitory concentration chosen for SI calculation, total actives in paint
Experimental: as §1, §4, §5, §6

[3] = system: Trentepohlia aurea, Tretepohlia odorata, and Calotrix parientina; assay: Algal efficacy, dry paint film (Modified ASTM 5589), Cp + To + Ta pool; conditions: Cal-Tre; for Total conc in pppm: minimum inhibitory concentration chosen for SI calculation, NE=no end point
Experimental: as §1, §2, §3, §4, §5, §6

[4] = system: Gloeocapsa sp. and Oscillatoria sp.; assay: Algal efficacy, dry paint film (Modified ASTM 5589), Gs + Os pool; conditions: Os-Gl; for Total conc in pppm: minimum inhibitory concentration chosen for SI calculation, total actives in paint
Experimental: as §1, §2, §3, §4, §5, §6

[5] = at the total conc listed for the same ratio

| Molecule | % Inhibition [1, 5] [%] | Total conc in pppm [1] [pppm] | % Inhibition [2, 5] [%] | Total conc in pppm [2] [pppm] | % Inhibition [3, 5] [%] | Total conc in pppm [3] [pppm] | % Inhibition [4, 5] [%] | Total conc in pppm [4] [pppm] |
| --- | --- | --- | --- | --- | --- | --- | --- | --- |
| Cc1ccc(S(=O)(=O)C(I)I)cc1 [DMITS, diiodomethyl-p-tolylsulfone] | 80 | 2475 | 80 | 825 | 20 | 3300 | 20 | 3300 |
| zinc glyphosate |  | 412.5 |  | 412.5 |  | 412.5 |  | 412.5 |
